Experimental data reported in PubChem BioAssay AID2060912 (Molecular Pharmacology Branch, DTP, NCI, 2025).

Tested on: HUVEC/MSC spheroids viability
Assay: Human HUVEC/MSC cell line growth inhibition [KRAS2];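 on viability, T/C: percent of DMSO vehicle control luminescence so 100% = untreated viability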
Details: for IC50: curve of first compound; for viability, T/C: stronger effect = lower value
From the text: Multicellular complex tumor spheroid response to RAS pathway inhibitors in combination with a targeted agents in patient-derived cell lines with oncogenic KRAS variants from multiple cancer types
A high-throughput screen of multi-cell type tumor spheroids was designed to identify active combinations of targeted small molecules and KRAS pathway inhibitors. Complex spheroids include a stromal component modeled by human endothelial cells (HUVEC) and fibroblasts modeled by human mesenchymal stem cells (MSCs). The concentration ranges selected for each drug and investigational agent were based upon clinically achievable concentrations if the clinical Cmax of the agent was known. * [This particular assayID is a followup dataset requested by reviewers of the manuscript. It is a test of the HUVEC and MSC without the tumor cells, and was conducted using different drug plates and a different plate layout.]
Compounds. The drugs and investigational agents: BI-3406 (NSC825286), BAY-293 (NSC824723), batoprotafib (TNO155; NSC825523), sotorasib (AMG 510; NSC818433), MRTX1257 (NSC819558), elimusertib (BAY 1895344; NSC800525), molibresib (GSK525762; NSC774829), temuterkib (LY3214996; NSC803410), venetoclax (NSC766270), alisertib (NSC759677), olaparib (NSC753686), talazoparib (NSC767125), erdafitinib (NSC781556), ipatasertib (NSC767898), cabozantinib (NSC761068), nintedanib (NSC756659), abemaciclib (NSC768073), docetaxel (NSC628503), trametinib (NSC758246), and sapanisertib (NSC764658) were obtained from the National Cancer Institute (NCI) Developmental Therapeutics Program Chemical Repository. The FDA-approved anticancer drug set is available from the Developmental Therapeutics Program. […] The stock solutions were prepared in dimethyl sulfoxide (DMSO, Sigma-Aldrich, St. Louis, MO, cat. D2650) at 800-fold the tested concentration and stored at -70 degrees C prior to their use. All drugs and investigational agents were tested over a range starting from a high concentration at or near the clinical Cmax and decreasing in half-log increments. If the clinical Cmax for an agent had not been determined, the highest concentration tested was 10 microM.
Cell Culture. All cells were maintained in an incubator at 37 degrees C and 5% CO2 with 95% humidity. The PDC lines were cultured according to standard operating procedures established by the NCI PDMR (https://pdmr.cancer.gov/sops/default.htm). Briefly, all PDCs were thawed and cultured in Matrigel-coated flasks prepared with a working solution of 1X Ham's F-12 nutrient mix, without supplementation (Invitrogen, Waltham, MA, cat. 11765054), 100 U/mL penicillin-streptomycin (Invitrogen, cat. 15140122), and 2.5% Matrigel (Corning Inc., Corning, NY, cat. 354248) for the first three passages. All PDCs were cultured in complete DMEM/F-12 media containing advanced DMEM/F-12 (Invitrogen, cat. 12634028), 4.9% defined fetal bovine serum, heat inactivated (HyClone Laboratories Inc., Logan, UT, cat. SH30070.03HI), 389 ng/mL hydrocortisone (Sigma-Aldrich, cat. H4001), 9.7 ng/mL human EGF recombinant protein (Invitrogen, cat. PHG0313), 23.4 microg/mL adenine (Sigma-Aldrich, cat. A2786), 97.3 U/mL penicillin-streptomycin (Invitrogen, cat. 15140122), 1.9 mM L-glutamine (Invitrogen, cat. 25030081), and 9.7 microM Y-27632 dihydrochloride (Tocris Bioscience, Bristol, United Kingdom, cat. 1254). The PDCs were cultured in complete DMEM/F12 media without 9.7 microM Y-27632 dihydrochloride for at least two passages prior to the screen. The established cell line HOP-62 was cultured in RPMI 1640 medium, HEPES (Invitrogen, cat. 22400105) with 10% defined fetal bovine serum (HyClone Laboratories Inc., cat. SH30070.03) and 2 mM L-glutamine (Invitrogen, cat. 25030081). The pooled donor HUVEC were cultured in endothelial cell growth medium 2 (PromoCell, Heidelberg, Germany, cat. C-22011) and the hMSC were cultured in mesenchymal stem cell growth medium 2 (PromoCell, cat. C-28009). […]

[1] = second compound 0.0316 µM, first compound 0.0316 µM
[2] = second compound 0.0316 µM, first compound 0.1 µM
[3] = second compound 0.0316 µM, first compound 0.316 µM
[4] = second compound 0.0316 µM, first compound 1 µM
[5] = second compound 0.0316 µM, first compound 3.16 µM
[6] = second compound 0.0316 µM, first compound 10 µM
[7] = second compound 0.1 µM, first compound 0.0316 µM
[8] = second compound 0.1 µM, first compound 0.1 µM
[9] = second compound 0.1 µM, first compound 0.316 µM
[10] = second compound 0.1 µM, first compound 1 µM
[11] = second compound 0.1 µM, first compound 3.16 µM
[12] = second compound 0.1 µM, first compound 10 µM
[13] = second compound 0.316 µM, first compound 0.0316 µM
[14] = second compound 0.316 µM, first compound 0.1 µM
[15] = second compound 0.316 µM, first compound 0.316 µM
[16] = second compound 0.316 µM, first compound 1 µM
[17] = second compound 0.316 µM, first compound 3.16 µM
[18] = second compound 0.316 µM, first compound 10 µM
[19] = second compound 1 µM, first compound 0.0316 µM
[20] = second compound 1 µM, first compound 0.1 µM
[21] = second compound 1 µM, first compound 0.316 µM
[22] = second compound 1 µM, first compound 1 µM
[23] = second compound 1 µM, first compound 3.16 µM
[24] = second compound 1 µM, first compound 10 µM
[25] = second compound 3.16 µM, first compound 0.0316 µM
[26] = second compound 3.16 µM, first compound 0.1 µM
[27] = second compound 3.16 µM, first compound 0.316 µM
[28] = second compound 3.16 µM, first compound 1 µM
[29] = second compound 3.16 µM, first compound 3.16 µM
[30] = second compound 3.16 µM, first compound 10 µM
[31] = second compound 10 µM, first compound 0.0316 µM
[32] = second compound 10 µM, first compound 0.1 µM
[33] = second compound 10 µM, first compound 0.316 µM
[34] = second compound 10 µM, first compound 1 µM
[35] = second compound 10 µM, first compound 3.16 µM
[36] = second compound 10 µM, first compound 10 µM

COc1cc(Nc2ncc3c(n2)-c2ccc(Cl)cc2C(c2c(F)cccc2OC)=NC3)ccc1C(=O)O + C=CC(=O)N1CCN(c2nc(=O)n(-c3c(C)ccnc3C(C)C)c3nc(-c4c(O)cccc4F)c(F)cc23)C(C)C1
IC50 (second compound 0.0316 µM): > 10 µM | IC50 (second compound 0.1 µM): > 10 µM | IC50 (second compound 0.316 µM): > 10 µM | IC50 (second compound 1 µM): > 10 µM | IC50 (second compound 3.16 µM): > 10 µM | IC50 (second compound 10 µM): > 10 µM | viability, T/C [1]: 94.8% | viability, T/C [2]: 125% | viability, T/C [3]: 99% | viability, T/C [4]: 109% | viability, T/C [5]: 106% | viability, T/C [6]: 71.6% | viability, T/C [7]: 103% | viability, T/C [8]: 109% | viability, T/C [9]: 108% | viability, T/C [10]: 111% | viability, T/C [11]: 106% | viability, T/C [12]: 56.3% | viability, T/C [13]: 111% | viability, T/C [14]: 114% | viability, T/C [15]: 93.8% | viability, T/C [16]: 116% | viability, T/C [17]: 106% | viability, T/C [18]: 69.3% | viability, T/C [19]: 122% | viability, T/C [20]: 127% | viability, T/C [21]: 115% | viability, T/C [22]: 127% | viability, T/C [23]: 117% | viability, T/C [24]: 72.9% | viability, T/C [25]: 110% | viability, T/C [26]: 123% | viability, T/C [27]: 110% | viability, T/C [28]: 96.3% | viability, T/C [29]: 109% | viability, T/C [30]: 83.3% | viability, T/C [31]: 136% | viability, T/C [32]: 129% | viability, T/C [33]: 154% | viability, T/C [34]: 120% | viability, T/C [35]: 101% | viability, T/C [36]: 66.8%

COc1cc2nccc(Oc3ccc(NC(=O)C4(C(=O)Nc5ccc(F)cc5)CC4)cc3)c2cc1OC + C=CC(=O)N1CCN(c2nc(=O)n(-c3c(C)ccnc3C(C)C)c3nc(-c4c(O)cccc4F)c(F)cc23)C(C)C1
IC50 (second compound 0.0316 µM): > 10 µM | IC50 (second compound 0.1 µM): 6.21 µM | IC50 (second compound 0.316 µM): 7.63 µM | IC50 (second compound 1 µM): 9.55 µM | IC50 (second compound 3.16 µM): > 10 µM | IC50 (second compound 10 µM): 8.55 µM | viability, T/C [1]: 66.7% | viability, T/C [2]: 102% | viability, T/C [3]: 63.2% | viability, T/C [4]: 72.4% | viability, T/C [5]: 77.2% | viability, T/C [6]: 51.5% | viability, T/C [7]: 61.5% | viability, T/C [8]: 71% | viability, T/C [9]: 89.2% | viability, T/C [10]: 92.6% | viability, T/C [11]: 91.7% | viability, T/C [12]: 27.8% | viability, T/C [13]: 79.2% | viability, T/C [14]: 108% | viability, T/C [15]: 96.6% | viability, T/C [16]: 80.6% | viability, T/C [17]: 83.3% | viability, T/C [18]: 40.2% | viability, T/C [19]: 87% | viability, T/C [20]: 89.5% | viability, T/C [21]: 111% | viability, T/C [22]: 92.4% | viability, T/C [23]: 92.6% | viability, T/C [24]: 48.2% | viability, T/C [25]: 103% | viability, T/C [26]: 124% | viability, T/C [27]: 129% | viability, T/C [28]: 88% | viability, T/C [29]: 84.2% | viability, T/C [30]: 56.9% | viability, T/C [31]: 112% | viability, T/C [32]: 102% | viability, T/C [33]: 109% | viability, T/C [34]: 97.9% | viability, T/C [35]: 123% | viability, T/C [36]: 40.7%
